Laboratory results: patent US12054485B2, “Substituted imidazoquinolines” (BIONTECH SE, priority 2017, dated 2024)

Experiments:
[1] = system: Human PBMCs; experiment: IFN-α induction by TLR agonists in human PBMCs (Luminex); format: cell-based; conditions: 24 h incubation, maximum of bell-shaped curve over 0.0003-1 μM, Table 1
Method: 1) IFN-α Induction Assay—IFN-α induction by TLR Agonists in Human PBMCs
Abbreviations: BSA=bovine serum albumine; PBS=phosphate buffer pH 7.4; PE=phycoerythrin; EDC=1-ethyl-3-(3-dimethylaminopropyl)carbodiimide hydrochloride.
Materials and Devices: Bio Plex 200 Luminex device, and BioPlex Manager software; MultiScreen Filter Plates (Millipore, MABVN1250); low binding reaction vials 1.5 ml (Sarstedt, 72.706.600); Activation Buffer: 0.1M Na-dihydrogen phosphate, 0.1M Di-Na hydrogen phosphate pH 6.2; Sulfo-NHS (N-hydroxysulfosuccinimide) solution: 50 mg/ml in water (freshly prepared); EDC solution: 50 mg/ml in water (freshly prepared); Coupling Buffer: PBS; Washing Buffer: PBS+0.05% Tween20; Blocking Buffer: PBS+10 mg/ml BSA+0.05% sodium azide; Assay Buffer: PBS+10 mg/ml BSA;
Other materials and devices (pipets, reaction vessels, shaker, etc.) were standard lab equipment; water was MilliQ grade quality, buffers were sterile filtered before use.
(Pre-)Incubation of Cells:
In each well of a 96-well U-bottom plate 200,000 PBMCs were pre-incubated in medium (RPMI1640-Gibco #61870-044+10% FBS+1% L-glutamine) for 5 hours at 37° C. and 5% CO2 before the compounds of the present invention or controls were added, respectively. Upon addition of compounds of the present invention or controls, the cells are incubated for another 24 h at 37° C. and 5% CO2.
Luminex assay, Step 1: Coupling of antibody to beads: • transfer a suspension (beads are stored in buffer as provided by manufacturer) of about 5 million MicroPlex Microspheres (=beads) into a low binding reaction vial • centrifuge bead suspension for 1 min at 10,000 g, discard supernatant and resuspend pellet in 160 μl Activation Buffer, repeat once • add 20 μl Sulfo-NHS solution and 20 μl EDC solution, vortex • incubate for 20 min in the absence of light • centrifuge bead suspension for 1 min at 10,000 g, discard supernatant and resuspend pellet in 500 μl Coupling Buffer, repeat once • add capture antibody (CaptureAK eBioscience #BMS160, 5 μg per 1 Mio beads) • incubate 2 h at RT in the absence of light while swaying • centrifuge bead suspension for 1 min at 10,000 g, discard supernatant and resuspend pellet in 500 μl Washing Buffer, repeat once • centrifuge bead suspension for 1 min at I0,000 g, discard supernatant and resuspend pellet in 100 μl Blocking Buffer
Luminex assay, Step 2: Measurement • add 100 μlAssay Buffer into each filter plate well (seal any unused wells with adhesive tape), then remove buffer • add about 2,000 beads per well per analyte (per analyte, a different bead type with distinct fluorescence color is used), suspended in […] of Assay Buffer • remove buffer and wash twice with 100 μl Washing Buffer per well • per well, add 50 μl sample solution from the (pre-)incubation step (cell supernatant), or Standard (IFN-α standard eBioscience #BMS216MST—concentration gradient, highest standard concentration 2500 pg/ml) or Assay Buffer (as blanks) • shake plate • incubate plate for 2 h at RT in the absence of light, while swaying the plate • wash three times with 100 μl Washing Buffer per well • add 25 μl antibody detection mix (DetectionAK eBioscience #BMS1016BT diluted 1:1000) in Assay Buffer per well, then vortex plate • incubate plate for 1 h at RT in the absence of light, while swaying the plate • wash three times with 100 μl Washing Buffer per well • add 50 μl Streptavidin/PE (diluted 1:200 in Assay Buffer) per well, then vortex plate • incubate plate for 10 min at RT in the absence of light, while swaying the plate • wash three times with 100 μl Washing Buffer per well • add 100 μl Assay Buffer per well, then vortex plate • start Luminex measurement according to manufacturer's instructions, measuring at least 50 beads per well per analyte
The compounds were tested at 8 different concentrations (1 μM, 0.3 μM, 0.1 μM, 0.03 μM, 0.01 μM 0.003 μM, 0.001 μM, 0.0003 μM) using a half-logarithmic dilution. […]

[2] = system: cynomolgus monkeys; experiment: In vivo IFN-α secretion in cynomolgus monkeys (plasma IFN-α ELISA); conditions: cynomolgus monkey, single i.v. 30 min infusion, 0.1 mg/kg
Method: In the following studies, compounds according to the invention were examined in an in vivo cynomolgus monkey model. It is evaluated whether and at which applied dose the compounds cause secretion of IFN-α.
In particular, a defined single dose of test compound was applied intravenously to cynomolgus monkeys by a thirty minute infusion. At several time points after initiation of the intravenous compound application, blood samples (0.5 mL for approximately 0.25 mL plasma) were collected from the vena cephalica antebrachii or vena saphena into K3EDTA tubes from the animals. Blood samples were stored on crushed ice prior to centrifugation. Plasma was obtained by centrifugation at 4° C. and approximately 1800 g for 10 minutes and was aliquoted into labeled micro tubes and stored frozen at −70° C. or below. Plasma samples were thawed, diluted and used for determination of IFN-α levels using an IFN-α Elisa Kit (e.g. VeriKine™ Cynomolgus/Rhesus IFN-α ELISA Kit) according to the manufacturer's instructions.

CCc1nc2c(N)nc3ccccc3c2n1CCCCN(C(C)=O)C1CCOCC1 [Example 1, N-(4-(4-Amino-2-ethyl-1H-imidazo[4,5-c]quinolin-1-yl)butyl)-N-(tetrahydro-2H-pyran-4-yl)acetamide]
Maximum IFN-α release [1]: 1750 pg/mL | IFN-α secretion (plasma) [2]: up to 15,000 pg/ml
